Like-named read-outs stand apart in the source and are kept apart here.
Assays:
human HDAC2 = target: T1, human HDAC2 (Homo sapiens, UniProt Q92769); test: Primary assay: deacetylase activity, recombinantly produced HDAC2; format: biochemical; settings: for IC50: recombinant HDAC2, read-out: HDAC Inhibition (IC50 unless otherwise specified) HDAC2
T1 construct: Full length human HDAC2 was subcloned; Flag (C); His6 (from pAcHLT-A vector; purified on Ni-NTA) (N); made in house; host or cells: SF9 insect cells (baculovirus)
Excerpt: (§1) Briefly, this assay relies on the release of radioactive acetate from a radioactively labelled histone fragment by the action of HDAC enzyme. Test compounds, which inhibit HDAC, reduce the yield of radioactive acetate. Signal (e.g., scintillation counts) measured in the presence and absence of a test compound provide an indication of that compound's ability to inhibit HDAC activity. Decreased activity indicates increased inhibition by the test compound.
(§2) The histone fragment was an N-terminal sequence from histone H4, and it was labelled with radioactively labelled acetyl groups using tritiated acetylcoenzyme A (coA) in conjunction with an enzyme which is the histone acetyltransferase domain of the transcriptional coactivator p300. […] The acetylated peptide was then separated from free acetyl coA by size exclusion chromatography on Sephadex G-15 (Sigma G-15-120), using distilled H2O as the mobile phase.
(§3) After purification of the radiolabelled histone fragment, it was incubated with a source of HDAC (e.g., an extract of HeLa cells (a rich source of HDAC), recombinantly produced HDAC1 or HDAC2) and any released acetate was extracted into an organic phase and quantitatively determined using scintillation counting. By including a test compound with the source of HDAC, that compound's ability to inhibit the HDAC was determined.
(§4) Amplification of recombinant viruses was performed according to the Pharmingen Instruction Manual.
(§5) For protein production, 2×10^7 cells were infected with the appropriate recombinant virus for 3 days. Cells were then harvested and spun at 3,000 rpm for 5 minutes. They were then washed twice in PBS and resuspended in 2 pellet volumes of lysis buffer (25 mM HEPES pH 7.9, 0.1 mM EDTA, 400 mM KCl, 10% glycerol, 0.1% NP-40, 1 mM AEBSF). Resuspended cells were frozen on dry ice and thawed at 37° C. 3 times and centrifuged for 10 minutes at 14,000 rpm. […] Incubation was carried out at 4° C. for 1 hour on a rotating wheel. The slurry was then centrifuged at 500 g for 5 minutes. Beads were washed twice in 1 ml of wash buffer (25 mM HEPES pH7.9, 0.1 mM EDTA, 150 mM KCl, 10% glycerol, 0.1% NP-40, 1 mM AEBSF). Protein was eluted 3 times in 300 μl elution buffer (25 mM HEPES pH 7.9, 0.1 mM EDTA, 250 mM KCl, 10% glycerol, 0.1% NP-40, 1 mM AEBSF) containing increasing concentrations of imidazole: 0.2 M, 0.5 M and 1 M. Each elution was performed for 5 minutes at room temperature. Eluted protein was kept in 50% glycerol at −70° C.
(§6) A source of HDAC (e.g., 2 μL of crude HeLa extract, 5 μL of HDAC1 or HDAC2; in elution buffer, as above) was incubated with 3 μL of radioactively labelled peptide along with appropriate dilutions of candidate compounds (1.5 μL) in a total volume of 150 μL of buffer (20 mM Tris pH 7.4, 10% glycerol). The reaction was carried out at 37° C. for one hour, after which the reaction was stopped by adding 20 μL of 1 M HCl/0.4 M sodium acetate. […] Radioactivity was measured using a Tri-Carb 2100TR Liquid Scintillation Analyzer (Packard).
(§7) Percent activity (% activity) for each test compound was calculated as: % activity={(S^C−B)/(S^o−B)}×100 wherein S^C denotes signal measured in the presence of enzyme and the compound being tested, S^o denotes signal measured in the presence of enzyme but in the absence of the compound being tested, and B denotes the background signal measured in the absence of both enzyme and compound being tested.

HDAC (HeLa cell extract) = test: Primary assay: deacetylase activity, HeLa cell extract as source of HDAC; format: biochemical, human; settings: HeLa cell extract
Method in brief: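 Crude HeLa extract (freeze-thaw in 60 mM TrisCl pH 8.0, 450 mM NaCl, 30% glycerol) was incubated 1 h at 37° C with a [³H]acetyl-labelled histone H4 N-terminal peptide in 20 mM Tris pH 7.4, 10% glycerol.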

human HDAC1 = target: T2, human HDAC1 (Homo sapiens, UniProt Q13547); test: Primary assay: deacetylase activity, recombinantly produced HDAC1; format: biochemical; settings: recombinant HDAC1; read-out: HDAC Inhibition (IC50 unless otherwise specified) HDAC1
T2 construct: Full length human HDAC1 was cloned by PCR; Flag (C); His6 (from pAcHLT vector; purified on Ni-NTA) (N); made in house; host or cells: SF9 insect cells (baculovirus)
Excerpt: as §1, §2, §3
Full length human HDAC1 was cloned by PCR using a λgt11 Jurkat cDNA library (Clontech-HL5012b). The amplified fragment was inserted into the EcoRI-Sall sites of pFlag-CTC vector (Sigma-E5394), in frame with the Flag tag. A second PCR was carried out in order to amplify a fragment containing the HDAC1 sequence fused to the Flag tag.
as §4, §5, §6, §7

HeLa cells = test: Secondary assay: cell proliferation WST-1, HeLa; format: cell-based; settings: Homo sapiens, 48 h, read-out: Cell Proliferation Inhibition WST-1 (IC50 unless otherwise specified) HeLa
Method in brief: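 Absorbance at 450 nm (reference 690 nm); % activity vs untreated after blank subtraction, IC50 fitted with top 100 and bottom 0.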

JURKAT human T-cell line = test: Secondary assay: cell proliferation WST-1, Jurkat; format: cell-based; settings: Homo sapiens, 48 h, read-out: Cell Proliferation Inhibition WST-1 (IC50 unless otherwise specified) Jurkat
Procedure: (§8) Compounds with HDAC inhibition activity, as determined using the primary assay, were subsequently evaluated using secondary cell-based assays. The following cell lines were used:
JURKAT—Human T-cell line (ATCC no. TIB-152).
(§9) Cells were plated in 96-well plates at 3-10×10^3 cells/well in 100 μL of culture medium. The following day, different concentrations of candidate compounds were added and the cells incubated at 37° C. for 48 h. Subsequently, 10 μL/well of WST-1 reagent was added and the cells reincubated for 1 hour. After the incubation time, absorbance was measured.
(§10) WST-1 is a tetrazolium salt which is cleaved to formazan dye by cellular enzymes. An expansion in the number of viable cells results in an increase in the overall activity of mitochondrial dehydrogenases in the sample. This augmentation in the enzyme activity leads to an increase in the amount of formazan dye formed, which directly correlates to the number of metabolically active cells in the culture. The formazan dye produced is quantified by a scanning multiwell spectrophotometer by measuring the absorbance of the dye solution at 450 nm wavelength (reference wavelength 690 nm).
(§11) Percent activity (% activity) in reducing the number of viable cells was calculated for each test compound as: % activity={(S^C−B)/(S^o−B)}×100 wherein S^C denotes signal measured in the presence of the compound being tested, S^o denotes signal measured in the absence of the compound being tested, and B denotes the background signal measured in blank wells containing medium only.
(§12) IC50 values were calculated using the software package Prism 3.0 (GraphPad software Inc., San Diego, Calif.), setting top value at 100 and bottom value at 0.

[1] = tested on: K11 HPV E7 transformed human keratinocyte line; test: Secondary assay: cell proliferation WST-1, K11; format: cell-based; settings: Homo sapiens, Keratinocyte, 48 h, read-out: Cell Proliferation Inhibition WST-1 (IC50 unless otherwise specified) K11
Procedure: as §8
K11—HPV E7 transformed human keratinocyte line provided by Pidder Jansen-Duerr, Institut für Biomedizinische Alternsforschung, Innsbruck, Austria.
as §9, §10, §11, §12

[2] = read-out: HDAC Inhibition (IC50 unless otherwise specified) HeLa

T2 sequence (Q13547 whole entry): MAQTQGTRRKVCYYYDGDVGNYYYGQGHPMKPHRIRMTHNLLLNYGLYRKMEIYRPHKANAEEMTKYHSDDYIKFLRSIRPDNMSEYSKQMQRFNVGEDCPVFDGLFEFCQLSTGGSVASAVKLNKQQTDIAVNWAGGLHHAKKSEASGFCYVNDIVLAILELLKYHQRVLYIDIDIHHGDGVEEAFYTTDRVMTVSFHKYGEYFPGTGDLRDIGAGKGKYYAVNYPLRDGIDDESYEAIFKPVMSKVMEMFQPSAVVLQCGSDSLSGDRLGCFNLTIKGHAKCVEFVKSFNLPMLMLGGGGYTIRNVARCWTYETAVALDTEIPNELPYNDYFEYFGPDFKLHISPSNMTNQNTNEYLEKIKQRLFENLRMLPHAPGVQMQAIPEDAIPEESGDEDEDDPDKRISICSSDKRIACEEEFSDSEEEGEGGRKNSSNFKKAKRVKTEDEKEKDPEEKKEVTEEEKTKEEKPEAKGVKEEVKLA
T1 sequence (Q92769 whole entry): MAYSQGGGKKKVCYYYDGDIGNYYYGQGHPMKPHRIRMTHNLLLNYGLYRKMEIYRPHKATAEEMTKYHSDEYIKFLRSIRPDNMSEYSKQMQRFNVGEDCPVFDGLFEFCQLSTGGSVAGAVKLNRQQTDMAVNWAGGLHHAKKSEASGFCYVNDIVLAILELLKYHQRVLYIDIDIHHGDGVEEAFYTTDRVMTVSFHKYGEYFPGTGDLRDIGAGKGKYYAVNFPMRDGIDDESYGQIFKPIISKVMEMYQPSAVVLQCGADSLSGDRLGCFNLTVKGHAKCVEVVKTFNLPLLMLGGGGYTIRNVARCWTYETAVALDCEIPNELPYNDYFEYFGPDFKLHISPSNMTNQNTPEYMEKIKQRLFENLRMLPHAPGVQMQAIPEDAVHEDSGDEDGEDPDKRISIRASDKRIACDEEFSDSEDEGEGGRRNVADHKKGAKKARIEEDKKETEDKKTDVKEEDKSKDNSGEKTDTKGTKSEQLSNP

Row | Compound | IC50 (human HDAC2) [nM] | melting point | IC50 (HDAC (HeLa cell extract); [2]) [nM] | IC50 (human HDAC1) [nM] | IC50 (HeLa cells) [nM] | HDAC Inhibition HeLa, percent (HDAC (HeLa cell extract); @ 1 μM) [% @ 1 μM] | percent HDAC inhibition at the stated concentration (HDAC (HeLa cell extract); comparative tables, @ 1 μM) [% @ 1 μM] | HDAC Inhibition HDAC2, percent (human HDAC2; recombinant HDAC2, @ 5 μM) [% @ 5 μM] | IC50 (HDAC (HeLa cell extract); comparative tables, read-out: HeLa IC50) [nM] | HDAC Inhibition HeLa, percent (HDAC (HeLa cell extract); @ 500 nM) [% @ 500 nM] | IC50 (JURKAT human T-cell line) [nM] | IC50 [1] [nM]
1 | O=C(CCCCCNC(=O)c1ccccc1)NO [PX083449, N-(5-Hydroxycarbamoyl-pentyl)-benzamide] | 688 | 102 to 104 °C | – | – | – | – | – | – | – | – | – | –
2 | COc1ccc(C(=O)NCCCCCC(=O)NO)cc1 [PX089276, N-(5-Hydroxycarbamoyl-pentyl)-4-methoxy-benzamide] | 312 | 131 to 132 °C | 165 | 250 | 6300 | – | – | – | – | – | – | –
3 | CN(C)c1ccc(C(=O)NCCC(=O)NO)c2ccccc12 [PX082530, 4-Dimethylamino-napthalene-1-carboxylic acid (2-hydroxycarbamoyl-ethyl)-amide] | – | – | – | – | – | 13 | 13 | 18 | – | – | – | –
4 | O=C(/C=C\C=C\c1ccc(Cl)cc1)NCCCCCC(=O)NO [PX105849, (2Z,4E)-5-(4-Chlorophenyl)penta-2,4-dienoic acid (5-hydroxycarbamoylpentyl)-amide] | 63 | 158 to 160 °C | 29 | 50 | 5300 | – | – | – | – | – | – | –
5 | O=C(/C=C/C=C/c1ccc(-c2ccccc2)cc1)NCCCCCC(=O)NO [PX105848, (2E,4E)-5-Biphenyl-4-yl-penta-2,4-dienoic acid (5-hydroxycarbamoyl-pentyl)-amide] | 56 | 222 to 224 °C | 22 | 25 | 4300 | – | – | – | 22 | – | – | –
6 | O=C(/C=C/c1cccc(NC(=O)/C=C/c2ccccc2)c1)NO [PX106513, N-Hydroxy-3-[3-(3-phenylacryloylamino)-phenyl]-acrylamide] | – | 178 °C | – | 438 | – | – | 43 | – | – | 43 | – | –
7 | CC(/C=C/C(=O)NCCCC(=O)NO)=C\c1ccccc1 [PX105554] | 31000 | – | 21900 | – | 114000 | – | – | – | – | – | 20000 | –
8 | O=C(/C=C/c1ccc2c(c1)OCO2)NCCCCCC(=O)NO [PX105831, (E)-3-Benzo[1,3]dioxol-5-yl-N-(5-hydroxycarbamoylpentyl)acrylamide] | 69 | 191 to 193 °C | 33 | 64 | 9000 | – | – | – | – | – | – | –
9 | O=C(/C=C/C#Cc1ccccc1)NCCCCCC(=O)NO [PX106525, (E)-5-Phenylpent-2-en-4-ynoic acid (5-hydroxycarbamoylpentyl)amide] | – | 146 to 148 °C | 28 | 37 | 4700 | – | – | – | – | – | 3600 | 2800
10 | CN(C)c1ccc(/C=C/C=C/C(=O)NCCCC(=O)NO)cc1 [PX105669] | 28000 | – | – | – | – | – | – | – | – | – | – | –
11 | O=C(CCCCCNC(=O)c1nc2ccccc2[nH]1)NO [PX105824, 1H-Benzimidazole-2-carboxylic acid (5-hydroxycarbamoylpentyl)amide] | – | 201 °C (dec.) | 69 | 69 | 5200 | – | – | – | – | – | – | –
12 | O=C(CCCCCCC(=O)Nc1ccc(-c2ccccc2)cc1)NO [PX117720, Octanedioic acid biphenyl-4-ylamide hydroxamide] | – | 227 to 229 °C | 40 | – | 1800 | – | – | – | – | – | 260 | 2500
13 | O=C(CCCCCCC(=O)NCC(O)c1ccccc1)NO (stereo not drawn) [PX116226, Octanedioic acid hydroxyamide (2-hydroxy-2-phenyl-ethyl)-amide] | – | 100 to 102 °C | 562 | – | 4100 | – | – | – | – | – | 3200 | 5100
14 | O=C(CCCCCNC(=O)CC/C=C/c1ccccc1)NO [PX117797, (E)-N-[6-(Hydroxyamino)-6-oxohexyl]-5-phenyl-4-pentenamide] | – | 131 to 133 °C | 688 | – | 21000 | – | – | – | – | – | 5600 | 21000
15 | O=C(CCCCCCC(=O)NCCCc1ccccc1)NO [PX117420, Octanedioic acid hydroxyamide (3-phenyl-propyl)-amide] | – | 97 to 98 °C | – | – | 15000 | – | – | – | – | 73 | 5300 | 23500
16 | O=C(CCCCCNC(=O)C(c1ccccc1)c1ccccc1)NO [PX106489, 6-Diphenylacetylamino-hexanoic acid hydroxyamide] | – | 55 to 56 °C | 3300 | 4000 | 60000 | – | – | – | – | – | – | –
17 | O=C(/C=C/C=C/c1ccccc1)NC[C@H]1CC[C@H](C(=O)NO)CC1 [PX105552, 4-[((2E)(4E)-5-Phenylpenta-2,4-dienoylamino)methyl] cyclohexanecarboxylic acid hydroxyamide] | 967 | 210 to 212 °C | 500 | – | 10000 | – | – | – | – | – | 7900 | 10000

— patent publication US7569724B2, “Carbamic acid compounds comprising an amide linkage as HDAC inhibitors” (Topotarget UK Limited, priority 2000, dated 2009)
